Biological target: Protein smoothened (Homo sapiens, UniProt Q99835)
Test: Inhibition of Smo receptor (unknown origin) expressed in NIH3T3 cells assessed as inhibition of Smo agonist SAG-induced GRE activation after 30 hrs by luciferase reporter gene assay
Format: cell-based

Chain of Protein smoothened (Q99835 whole entry): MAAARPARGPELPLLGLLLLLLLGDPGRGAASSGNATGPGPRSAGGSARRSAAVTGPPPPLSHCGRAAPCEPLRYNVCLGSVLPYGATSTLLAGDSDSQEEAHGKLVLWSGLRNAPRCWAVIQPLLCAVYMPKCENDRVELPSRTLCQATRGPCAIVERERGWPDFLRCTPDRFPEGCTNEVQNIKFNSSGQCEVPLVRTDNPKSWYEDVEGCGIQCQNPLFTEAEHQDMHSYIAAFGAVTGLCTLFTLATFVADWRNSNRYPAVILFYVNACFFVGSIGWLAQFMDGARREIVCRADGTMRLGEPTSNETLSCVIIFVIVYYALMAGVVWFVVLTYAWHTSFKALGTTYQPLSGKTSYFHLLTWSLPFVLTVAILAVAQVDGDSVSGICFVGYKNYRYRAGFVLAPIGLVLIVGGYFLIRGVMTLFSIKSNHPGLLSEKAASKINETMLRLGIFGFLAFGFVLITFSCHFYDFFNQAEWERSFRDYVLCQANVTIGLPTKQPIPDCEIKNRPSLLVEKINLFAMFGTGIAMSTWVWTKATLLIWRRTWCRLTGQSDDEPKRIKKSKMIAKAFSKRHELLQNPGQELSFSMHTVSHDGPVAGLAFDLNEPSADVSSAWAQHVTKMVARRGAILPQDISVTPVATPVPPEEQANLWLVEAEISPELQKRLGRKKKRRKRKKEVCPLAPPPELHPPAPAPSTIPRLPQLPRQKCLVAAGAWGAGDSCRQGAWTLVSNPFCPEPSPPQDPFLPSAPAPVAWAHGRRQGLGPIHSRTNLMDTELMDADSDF

IC50	Structure (SMILES)
1300 nM	CCNC(=O)c1cn2c(n1)CN(c1cc(-c3ncc(C)cc3C)c(Cl)cn1)CC2
2700 nM	CNC(=O)c1cn2c(n1)CN(c1cc(-c3ncc(C)cc3C)c(Cl)cn1)CC2
520 nM	Cc1cnc(-c2cc(N3CCn4cc(C(=O)NCC5CC5)nc4C3)ncc2Cl)c(C)c1
270 nM	Cc1cnc(-c2cc(N3CCn4cc(C(=O)N5CCCC5)nc4C3)ncc2Cl)c(C)c1
790 nM	Cc1cnc(-c2cc(N3CCn4cc(C(=O)N5CCOCC5)nc4C3)ncc2Cl)c(C)c1
> 10000 nM	Cc1cnc(-c2cc(N3CCn4cc(C(=O)N5CCC(O)C5)nc4C3)ncc2Cl)c(C)c1 (centres undefined)
1200 nM	Cc1cnc(-c2cc(N3CCn4cc(C(=O)N5CCC(O)CC5)nc4C3)ncc2Cl)c(C)c1
1500 nM	Cc1cnc(-c2cc(N3CCn4cc(C(=O)N5CC(C)NC(C)C5)nc4C3)ncc2Cl)c(C)c1 (centres undefined)
87 nM	Cc1cnc(-c2cc(N3CCn4cc(C(=O)Nc5cccc(F)c5)nc4C3)ncc2Cl)c(C)c1
440 nM	Cc1cnc(-c2cc(N3CCn4cc(C(=O)Nc5ccc(F)cc5)nc4C3)ncc2Cl)c(C)c1
270 nM	Cc1cnc(-c2cc(N3CCn4cc(C(=O)Nc5ccccn5)nc4C3)ncc2Cl)c(C)c1
200 nM	Cc1cnc(-c2cc(N3CCn4cc(C(=O)Nc5cccnc5)nc4C3)ncc2Cl)c(C)c1
4100 nM	Cc1cnc(-c2cc(N3CCn4cc(CO)nc4C3)ncc2Cl)c(C)c1
910 nM	Cc1cnc(-c2cc(N3CCn4cc(CN5CCOCC5)nc4C3)ncc2Cl)c(C)c1
890 nM	CCC(=O)Nc1cn2c(n1)CN(c1cc(-c3ncc(C)cc3C)c(Cl)cn1)CC2

More lines, now with the values behind:

Structure (SMILES)	IC50
CCOC(=O)c1cn2c(n1)CN(c1cc(-c3ncc(C)cc3C)c(Cl)cn1)CC2	690 nM
Cc1cnc(-c2cc(N3CCn4cc(C(=O)O)nc4C3)ncc2Cl)c(C)c1	> 10000 nM
Cc1cnc(-c2cc(N3CCn4cc(C(=O)N(C)CCO)nc4C3)ncc2Cl)c(C)c1	4100 nM
Cc1cnc(-c2cc(N3CCn4cc(C(=O)N5CC(O)C5)nc4C3)ncc2Cl)c(C)c1	> 10000 nM
COC[C@H]1CCCN1C(=O)c1cn2c(n1)CN(c1cc(-c3ncc(C)cc3C)c(Cl)cn1)CC2	550 nM
Cc1cnc(-c2cc(N3CCn4cc(C(=O)Nc5ccccc5)nc4C3)ncc2Cl)c(C)c1	300 nM
Cc1cnc(-c2cc(N3CCn4cc(C(=O)Nc5ccccc5F)nc4C3)ncc2Cl)c(C)c1	350 nM
Cc1cnc(-c2cc(N3CCn4cc(C(=O)Nc5ccc(F)c(F)c5)nc4C3)ncc2Cl)c(C)c1	420 nM
Cc1cnc(-c2cc(N3CCn4cc(C(=O)OC(C)C)nc4C3)ncc2Cl)c(C)c1	380 nM
Cc1cnc(-c2cc(N3CCn4cc(C(=O)OCC5CC5)nc4C3)ncc2Cl)c(C)c1	270 nM
Cc1cnc(-c2cc(N3CCn4cc(C(=O)OC5CCCC5)nc4C3)ncc2Cl)c(C)c1	740 nM
Cc1cnc(-c2cc(N3CCn4cc(C(=O)Oc5ccccc5)nc4C3)ncc2Cl)c(C)c1	960 nM
Cc1cnc(-c2cc(N3CCn4cc(NC(=O)C(F)(F)F)nc4C3)ncc2Cl)c(C)c1	1800 nM
COCC(=O)Nc1cn2c(n1)CN(c1cc(-c3ncc(C)cc3C)c(Cl)cn1)CC2	650 nM

Reference: ChEMBL document CHEMBL3259530, “Scaffold hopping approach to a new series of smoothened antagonists” (Bioorg Med Chem Lett, 2014)
